Data from patent US9920010B2, “CXCR7 receptor modulators” (IDORSIA PHARMACEUTICALS LTD, priority 2013, dated 2018).
pEC50: −log10 of the molar value.

Target: T1, CXCR7 (Homo sapiens, UniProt P25106)
T1 construct: host or cells: CHO-K1 (PathHunter CHO-K1 CXCR7 b-arrestin cell line, stably transfected)
Experiment: PathHunter CHO-K1 CXCR7 b-arrestin recruitment assay (CXCR7 agonistic activity)
Format: cell-based
Details: PathHunter CHO-K1 CXCR7 b-arrestin cell line
Outline: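 Stable CHO-K1 line with C-terminally ProLink-tagged CXCR7 and β-arrestin 2–EA fusion; β-arrestin recruitment restores β-gal activity, read by chemiluminescence after 1 h RT detection. Cells seeded 24 h, starved in OPTIMEM 3–4 h, exposed to compounds 90 min at 37 °C in HBSS/HEPES/BSA. Geometric-mean EC50 from repeated measurements.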

T1 sequence (P25106 whole entry): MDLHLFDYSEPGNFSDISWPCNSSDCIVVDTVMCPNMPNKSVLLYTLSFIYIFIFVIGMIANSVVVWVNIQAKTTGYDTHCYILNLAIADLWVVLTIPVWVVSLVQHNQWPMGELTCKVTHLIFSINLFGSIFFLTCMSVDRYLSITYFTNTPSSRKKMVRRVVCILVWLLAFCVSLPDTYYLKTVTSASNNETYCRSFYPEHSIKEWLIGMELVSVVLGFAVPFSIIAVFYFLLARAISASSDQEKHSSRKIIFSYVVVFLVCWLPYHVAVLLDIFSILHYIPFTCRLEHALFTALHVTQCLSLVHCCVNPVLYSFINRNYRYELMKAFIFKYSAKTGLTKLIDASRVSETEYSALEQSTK
T1 sequence (P32121 whole entry partner): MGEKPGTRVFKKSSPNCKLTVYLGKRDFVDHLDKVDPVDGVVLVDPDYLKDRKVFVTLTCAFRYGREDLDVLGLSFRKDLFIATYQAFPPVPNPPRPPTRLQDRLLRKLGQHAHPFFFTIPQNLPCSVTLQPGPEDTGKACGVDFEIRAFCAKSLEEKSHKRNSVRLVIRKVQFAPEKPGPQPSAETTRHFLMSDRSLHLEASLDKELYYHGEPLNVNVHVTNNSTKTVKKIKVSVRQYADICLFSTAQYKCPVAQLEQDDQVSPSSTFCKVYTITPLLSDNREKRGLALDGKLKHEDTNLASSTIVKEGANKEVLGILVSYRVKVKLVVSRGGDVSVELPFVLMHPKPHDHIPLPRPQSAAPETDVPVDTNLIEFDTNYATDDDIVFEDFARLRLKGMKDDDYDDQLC

| Structure (SMILES) | pEC50 |
| --- | --- |
| CCC(=O)N1CCc2c(cccc2NCC(=O)N(Cc2ccccc2)Cc2nccn2C)C1 [Example 26, N-Benzyl-N-(1-methyl-1H-imidazol-2-ylmethyl)-2-(2-propionyl-1,2,3,4-tetrahydro-isoquinolin-5-ylamino)-acetamide] | 6.35 |
| COCCN1CCc2c(/C=C/C(=O)N(CCC(C)(C)C)Cc3ncccc3C)cccc2C1 [Example 320, (E)-N-(3,3-Dimethyl-butyl)-3-[2-(2-methoxy-ethyl)-1,2,3,4-tetrahydro-isoquinolin-5-yl]-N-(3-methyl-pyridin-2-ylmethyl)-acrylamide] | 6.81 |
| COC(=O)N1CCc2c(cccc2OCC(=O)N(CCN(C)C)Cc2ccccc2)C1 [Example 167, 5-{[Benzyl-(2-dimethylamino-ethyl)-carbamoyl]-methoxy}-3,4-dihydro-1H-isoquinoline-2-carboxylic acid methyl ester] | 7.41 |
| CN(C)CCN(Cc1ncccc1C(F)(F)F)C(=O)CNc1cccc2c1CCN(C1COC1)C2 [Example 367, N-(2-Dimethylamino-ethyl)-2-(2-oxetan-3-yl-1,2,3,4-tetrahydro-isoquinolin-5-ylamino)-N-(3-trifluoromethyl-pyridin-2-ylmethyl)-acetamide] | 6.94 |
| NC(=O)CCN(Cc1ccccc1)C(=O)CNc1cccc2c1CCN(CC1CC1)C2 [Example 68, 3-{Benzyl-[2-(2-cyclopropylmethyl-1,2,3,4-tetrahydro-isoquinolin-5-ylamino)-acetyl]-amino}-propionamide] | 6.48 |
| CC(C)CN1CCc2c(cccc2NCC(=O)N(CCN(C)C)Cc2ccccc2)C1 [compound 112, N-Benzyl-N-(2-dimethylamino-ethyl)-2-(2-isobutyl-1,2,3,4-tetrahydro-isoquinolin-5-ylamino)-acetamide] | 7.40 |
| CN(C)CCN(Cc1ccccc1)C(=O)CNc1cccc2c1CCN(C(=O)OCc1ccccc1)C2 [compound 131] | 6.35 |
| CCC(=O)N1CCc2cccc(NCC(=O)N(CCN(C)C)Cc3ccccc3)c2C1 [Example 188, N-Benzyl-N-(2-dimethylamino-ethyl)-2-(2-propionyl-1,2,3,4-tetrahydro-isoquinolin-8-ylamino)-acetamide] | 7.15 |
| CNCCN(Cc1ncccc1C(F)(F)F)C(=O)CNc1cccc2c1CCN(C(=O)C(C)(C)C)C2 [compound 415] | 6.75 |
| COCCN1CCc2c(CCC(=O)N(CCN(C)CCF)Cc3ccccc3C(F)(F)F)cccc2C1 [Example 342, N-{2-[(2-Fluoro-ethyl)-methyl-amino]-ethyl}-3-[2-(2-methoxy-ethyl)-1,2,3,4-tetrahydro-isoquinolin-5-yl]-N-(2-trifluoromethyl-benzyl)-propionamide] | 6.96 |
| CCN(Cc1ccccc1Cl)C(=O)/C=C/c1cccc2c1CCN(C(=O)OC(C)(C)C)C2 [Example 92, 5-{(E)-2-[(2-Chloro-benzyl)-ethyl-carbamoyl]-vinyl}-3,4-dihydro-1H-isoquinoline-2-carboxylic acid tert-butyl ester] | 6.38 |
| COCCN1CCc2c(/C=C/C(=O)N(Cc3ncccc3Cl)CC(C)(C)O)cccc2C1 [Example 328, (E)-N-(3-Chloro-pyridin-2-ylmethyl)-N-(2-hydroxy-2-methyl-propyl)-3-[2-(2-methoxy-ethyl)-1,2,3,4-tetrahydro-isoquinolin-5-yl]-acrylamide] | 6.53 |
| CCOC(=O)CN(Cc1ccccc1)C(=O)CNc1cccc2c1CCN(CC1CC1)C2 [Example 71, {Benzyl-[2-(2-cyclopropylmethyl-1,2,3,4-tetrahydro-isoquinolin-5-ylamino)-acetyl]-amino}-acetic acid ethyl ester] | 6.49 |
| C/C(=C\c1cccc2c1CCN(C(=O)OC(C)(C)C)C2)C(=O)N(CCN(C)C)Cc1ccccc1C(F)(F)F [Example 97, 5-{(E)-2-[(2-Dimethylamino-ethyl)-(2-trifluoromethyl-benzyl)-carbamoyl]-propenyl}-3,4-dihydro-1H-isoquinoline-2-carboxylic acid tert-butyl ester] | 6.44 |
| CN(CCN(Cc1ncccc1C(F)(F)F)C(=O)CNc1cccc2c1CCN(CC1CC1)C2)C(=O)OC(C)(C)C [Example 215, {2-[[2-(2-Cyclopropylmethyl-1,2,3,4-tetrahydro-isoquinolin-5-ylamino)-acetyl]-(3-trifluoromethyl-pyridin-2-ylmethyl)-amino]-ethyl}-methyl-carbamic acid tert-butyl ester] | 6.97 |

Other lines, results leading:

| pEC50 | Structure (SMILES) |
| --- | --- |
| 8.52 | CNCCN(Cc1ccccc1C(F)(F)F)C(=O)CNc1cccc2c1CCN(CC1CC1)C2 [Example 179, 2-(2-Cyclopropylmethyl-1,2,3,4-tetrahydro-isoquinolin-5-ylamino)-N-(2-methylamino-ethyl)-N-(2-trifluoromethyl-benzyl)-acetamide] |
| 7.57 | CCN1CCc2cccc(NCC(=O)N(CCN(C)C)Cc3c(F)cccc3F)c2C1 [compound 524, N-(2,6-Difluoro-benzyl)-N-(2-dimethylamino-ethyl)-2-(2-ethyl-1,2,3,4-tetrahydro-isoquinolin-8-ylamino)-acetamide] |
| 7.47 | CCN1CCc2c(/C=C/C(=O)N(Cc3ccccc3C(F)(F)F)C3CCN(C)CC3)cccc2C1 [compound 151, (E)-3-(2-Ethyl-1,2,3,4-tetrahydro-isoquinolin-5-yl)-N-(1-methyl-piperidin-4-yl)-N-(2-trifluoromethyl-benzyl)-acrylamide] |
| 8.30 | CN(C)CCN(Cc1ccccc1C(F)(F)F)C(=O)CNc1cccc2c1CN(CC1CCCCC1)CC2 [compound 554, 2-(2-Cyclohexylmethyl-1,2,3,4-tetrahydro-isoquinolin-8-ylamino)-N-(2-dimethylamino-ethyl)-N-(2-trifluoromethyl-benzyl)-acetamide] |
| 8.05 | CCN1CCc2cccc(NCC(=O)N(Cc3ccccc3C(F)(F)F)C3CCCN(C)C3)c2C1 (racemic) [compound 518] |
| 7.68 | CCN(CC)CCN(Cc1ccccc1)C(=O)CNc1cccc2c1CN(CC)CC2 [compound 490, N-Benzyl-N-(2-diethylamino-ethyl)-2-(2-ethyl-1,2,3,4-tetrahydro-isoquinolin-8-ylamino)-acetamide] |
| 8.30 | CC(C)CN1CCc2cccc(NCC(=O)N(CCN(C)C)Cc3ccccc3C(F)(F)F)c2C1 [compound 557, N-(2-Dimethylamino-ethyl)-2-(2-isobutyl-1,2,3,4-tetrahydro-isoquinolin-8-ylamino)-N-(2-trifluoromethyl-benzyl)-acetamide] |
| 6.96 | CCN1CCc2cccc(NCC(=O)N(CCN3CCOCC3)Cc3ccccc3C(F)(F)F)c2C1 [compound 510] |
| 8.52 | CN(CCN(Cc1ccccc1C(F)(F)F)C(=O)CNc1cccc2c1CCN(CC1CC1)C2)C1CC1 [Example 220, N-[2-(Cyclopropyl-methyl-amino)-ethyl]-2-(2-cyclopropylmethyl-1,2,3,4-tetrahydro-isoquinolin-5-ylamino)-N-(2-trifluoromethyl-benzyl)-acetamide] |
| 6.80 | O=C(CNc1cccc2c1CCN(CC1CC1)C2)N(CCOCc1ccccc1)Cc1ccccc1C(F)(F)F [Example 82, N-(2-Benzyloxy-ethyl)-2-(2-cyclopropylmethyl-1,2,3,4-tetrahydro-isoquinolin-5-ylamino)-N-(2-trifluoromethyl-benzyl)-acetamide] |
| 8.70 | O=C(CNc1cccc2c1CCN(CC1CC1)C2)N(CCN1CCCCCC1)Cc1ccccc1C(F)(F)F [Example 218, N-(2-Azepan-1-yl-ethyl)-2-(2-cyclopropylmethyl-1,2,3,4-tetrahydro-isoquinolin-5-ylamino)-N-(2-trifluoromethyl-benzyl)-acetamide] |
| 7.57 | CN(C)CCN(Cc1ccccc1C(F)(F)F)C(=O)CNc1cccc2c1CCN(c1nc(C(F)(F)F)cs1)C2 [Example 376, N-(2-Dimethylamino-ethyl)-N-(2-trifluoromethyl-benzyl)-2-[2-(4-trifluoromethyl-thiazol-2-yl)-1,2,3,4-tetrahydro-isoquinolin-5-ylamino]-acetamide] |
| 7.46 | CN(C)CCN(Cc1ccccc1C(F)(F)F)C(=O)CNc1cccc2c1CN(C(=O)C(C)(C)C)CC2 [compound 551, N-(2-Dimethylamino-ethyl)-2-[2-(2,2-dimethyl-propionyl)-1,2,3,4-tetrahydro-isoquinolin-8-ylamino]-N-(2-trifluoromethyl-benzyl)-acetamide] |
| 8.52 | CCNCCN(Cc1ccccc1C(F)(F)F)C(=O)CNc1cccc2c1CCN(CC1CC1)C2 [compound 439, 2-(2-Cyclopropylmethyl-1,2,3,4-tetrahydro-isoquinolin-5-ylamino)-N-(2-ethylamino-ethyl)-N-(2-trifluoromethyl-benzyl)-acetamide] |
| 8.10 | CN1CCC(N(Cc2ccccc2C(F)(F)F)C(=O)/C=C/c2cccc3c2CCN(CC2CC2)C3)CC1 [compound 152, (E)-3-(2-Cyclopropylmethyl-1,2,3,4-tetrahydro-isoquinolin-5-yl)-N-(1-methyl-piperidin-4-yl)-N-(2-trifluoromethyl-benzyl)-acrylamide] |
| 6.82 | CN(C)CCN(Cc1ccccc1C(F)(F)F)C(=O)CNc1ccc(Cl)c2c1CCN(CC1CC1)C2 [Example 287, 2-(8-Chloro-2-cyclopropylmethyl-1,2,3,4-tetrahydro-isoquinolin-5-ylamino)-N-(2-dimethylamino-ethyl)-N-(2-trifluoromethyl-benzyl)-acetamide] |
| 8.70 | CN(C)CCN(Cc1ncccc1C(F)(F)F)C(=O)CNc1cccc2c1CCN(CC1CC1)C2 [Example 47, 2-(2-Cyclopropylmethyl-1,2,3,4-tetrahydro-isoquinolin-5-ylamino)-N-(2-dimethylamino-ethyl)-N-(3-trifluoromethyl-pyridin-2-ylmethyl)-acetamide] |
| 6.87 | O=C(CNc1cccc2c1CCN(CC1CC1)C2)N(CCN1CCNC1=O)Cc1ccccc1C(F)(F)F [Example 79, 2-(2-Cyclopropylmethyl-1,2,3,4-tetrahydro-isoquinolin-5-ylamino)-N-[2-(2-oxo-imidazolidin-1-yl)-ethyl]-N-(2-trifluoromethyl-benzyl)-acetamide] |
